Measured values taken from publication PMC3004914, “Classification of Drugs Based on Properties of Sodium Channel Inhibition: A Comparative Automated Patch-Clamp Study” (PLoS ONE, 2010).
“And” between values parts separate entries of the source, which are not always exact repeats. Equal values may be shown once. Read-outs that look alike come from different tables or passages of the source.

What was measured:
[1] = biological target: T1, rNav1.2 sodium channels (HEK-293 cells) (Rattus norvegicus, UniProt P04775); assay: steady-state inactivation protocol (availability curves), QPatch automated patch-clamp; format: cell-based
Source text: (§1) A)–D) Peak amplitudes of evoked currents (5 Hz trains of 5 depolarizations from −90 to −10 mV) are plotted against time. Black dots: Control. Grey dots: Drug perfusion. […] Calculation of properties of inhibition is illustrated. […] E) Calculation of Kr and Ki values from steady-state availability curves.
Standard steady-state inactivation protocols were used to measure the shift of steady-state availability curve caused by the drugs. Currents were evoked by a 10 ms test pulse to −10 mV, preceded by 400 ms pre-pulses from −150 to −30 mV. […] Because the inhibition at hyperpolarized potentials (Inh−150), and the shift of the availability curves (ΔV1/2) are both concentration-dependent properties, we calculated affinities to hyperpolarized and depolarized states (“resting state affinity”: Kr, and “inactivated state affinity”: Ki), which, on the other hand, are concentration-independent characteristics of individual drugs. Calculation of Kr and Ki values are described in Materials and Methods, and illustrated in Figure 1E. State-dependence (SD) was quantified as the ratio Kr/Ki.
(§2) HEK-293 cells stably expressing rNav1.2 sodium channels were obtained from NeuroSearch (Ballerup, Denmark).
(§3) Cells were automatically prepared for application to the chips (centrifuged and washed twice, then resuspended in extracellular solution) as described previously. Composition of the extracellular solution was: (in mM): 140 NaCl, 3 KCl, 1 CaCl2, 1 MgCl2, 0.1 CdCl2, 20 TEA-Cl, 5 HEPES, adjusted to pH 7.3, Osmolality: ∼320 mOsm.
(§4) All electrophysiological experiments were conducted on Qpatch-16 or QPatch HT instruments using QPlate™ chips. For a detailed description of the instrument and the patch-clamp chips see [37], [38]. Data were sampled at a frequency of 25 kHz and filtered at 5 kHz. […] The amplifier was controlled and the data were collected by the Sophion QPatch client software. For initial data analysis the QPatch software was used. Built-in amplifiers provide an improved method for series resistance compensation. Leak subtraction (based on a standard P/n protocol) was used to subtract the capacitive component of currents.
Inactivated affinity (Ki) values were calculated assuming a simple four-state model of drug binding and channel gating, using two separate methods: (1) from the shift of the availability curve (ΔV1/2), the slope of the Boltzmann fit of the availability curve (k) and Kr, using the formula described by Bean, Cohen and Tsien (Ki−ΔV1/2; see Figure 1E), or (2) from the apparent affinity (Kapp) at a certain pre-pulse potential, which was calculated from the inhibition (e.g. Inh−60) as described above, and the availability (h) at the same pre-pulse potential, using the formula from Kuo and Bean (Figure 1E). […] (Arithmetic means and SEM values are given in Results S7.)

[2] = biological target: T1, rNav1.2 sodium channels (HEK-293 cells); assay: 5 Hz train protocol, QPatch automated patch-clamp; format: cell-based; settings: for Rev (reversibility): Rev = A5/A1 after washout; for potency estimated from few doses: −90 mV, read-out: IC50;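 as to UD (use-dependence of the inhibition): UD = (A3/A4)/(A1/A2) as ratios of peak amplitudes from Figure 1A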
Source text: The dynamics of the onset and offset of inhibition was monitored using 5 Hz trains of five depolarizing pulses from a holding potential of −90 mV to −10 mV. The trains were repeated every 20 s. Drugs were applied after 10 control trains and 10 trains were delivered in the presence of the drug. The drug was then washed out, and the 10 trains were repeated.
We measured inhibition (Inh; from which we calculated IC50 values as described in Materials and Methods), reversibility of inhibition (Rev) and use-dependence (UD), as well as time constant of onset (τon) and offset (τoff). The calculation of IC50, quantification of Rev and UD, and the determination of time constants are illustrated in Figure 1A. Because τon should be concentration-dependent if we assume a single binding reaction, we excluded it from the analyses. […] Comments on the interpretation of these properties (Rev, […] and UD) are in Results S1.
as §1, §2, §3, §4
From this protocol we extracted five parameters, as illustrated in Figure 1A. We calculated inhibition of a single “cc” concentration: Inh = (amplitudectr – amplitudedrug)/amplitudectr.

[3] = biological target: sodium channels; settings: averaged literature data, cited from earlier work; for Ki: read-out: Ki−Lit; for Kd: read-out: Kr−Lit
[4] = human plasma, cited from earlier work
[5] = HEK293, 100 µM, read-out: Inh (inhibited fraction) at holding potential −150 mV
[6] = arithmetic mean, 100 µM, read-out: Ki-Kapp arith
[7] = arithmetic mean, 100 µM, read-out: Ki-ΔV1/2 arith
[8] = arithmetic mean, 100 µM, read-out: Kr arith
[9] = geometric mean, from Inh at −150 mV, 100 µM, read-out: Kr (resting state affinity)
[10] = geometric mean, from apparent affinity, 100 µM, read-out: Ki−Kapp (inactivated state affinity)
[11] = geometric mean, from shift of availability curve, 100 µM, read-out: Ki−ΔV1/2 (inactivated state affinity)
[12] = 100 μM, 500 s assigned where irreversible
[13] = HEK293, 100 μM, −90 mV holding potential, 5 Hz train, read-out: Inh (inhibited fraction)
[14] = HEK293, calculated from Inh at single concentration 100 μM, 5 Hz train
[15] = HEK293, 30 µM, read-out: Inh (inhibited fraction) at holding potential −150 mV
[16] = arithmetic mean, 30 µM, read-out: Ki-Kapp arith
[17] = arithmetic mean, 30 µM, read-out: Ki-ΔV1/2 arith
[18] = geometric mean, from Inh at −150 mV, 30 µM, read-out: Kr (resting state affinity)
[19] = geometric mean, from apparent affinity, 30 µM, read-out: Ki−Kapp (inactivated state affinity)
[20] = geometric mean, from shift of availability curve, 30 µM, read-out: Ki−ΔV1/2 (inactivated state affinity)
[21] = 30 μM, 500 s assigned where irreversible
[22] = HEK293, calculated from Inh at single concentration 30 μM, 5 Hz train

T1 sequence (P04775 whole entry, the tested form may be a part): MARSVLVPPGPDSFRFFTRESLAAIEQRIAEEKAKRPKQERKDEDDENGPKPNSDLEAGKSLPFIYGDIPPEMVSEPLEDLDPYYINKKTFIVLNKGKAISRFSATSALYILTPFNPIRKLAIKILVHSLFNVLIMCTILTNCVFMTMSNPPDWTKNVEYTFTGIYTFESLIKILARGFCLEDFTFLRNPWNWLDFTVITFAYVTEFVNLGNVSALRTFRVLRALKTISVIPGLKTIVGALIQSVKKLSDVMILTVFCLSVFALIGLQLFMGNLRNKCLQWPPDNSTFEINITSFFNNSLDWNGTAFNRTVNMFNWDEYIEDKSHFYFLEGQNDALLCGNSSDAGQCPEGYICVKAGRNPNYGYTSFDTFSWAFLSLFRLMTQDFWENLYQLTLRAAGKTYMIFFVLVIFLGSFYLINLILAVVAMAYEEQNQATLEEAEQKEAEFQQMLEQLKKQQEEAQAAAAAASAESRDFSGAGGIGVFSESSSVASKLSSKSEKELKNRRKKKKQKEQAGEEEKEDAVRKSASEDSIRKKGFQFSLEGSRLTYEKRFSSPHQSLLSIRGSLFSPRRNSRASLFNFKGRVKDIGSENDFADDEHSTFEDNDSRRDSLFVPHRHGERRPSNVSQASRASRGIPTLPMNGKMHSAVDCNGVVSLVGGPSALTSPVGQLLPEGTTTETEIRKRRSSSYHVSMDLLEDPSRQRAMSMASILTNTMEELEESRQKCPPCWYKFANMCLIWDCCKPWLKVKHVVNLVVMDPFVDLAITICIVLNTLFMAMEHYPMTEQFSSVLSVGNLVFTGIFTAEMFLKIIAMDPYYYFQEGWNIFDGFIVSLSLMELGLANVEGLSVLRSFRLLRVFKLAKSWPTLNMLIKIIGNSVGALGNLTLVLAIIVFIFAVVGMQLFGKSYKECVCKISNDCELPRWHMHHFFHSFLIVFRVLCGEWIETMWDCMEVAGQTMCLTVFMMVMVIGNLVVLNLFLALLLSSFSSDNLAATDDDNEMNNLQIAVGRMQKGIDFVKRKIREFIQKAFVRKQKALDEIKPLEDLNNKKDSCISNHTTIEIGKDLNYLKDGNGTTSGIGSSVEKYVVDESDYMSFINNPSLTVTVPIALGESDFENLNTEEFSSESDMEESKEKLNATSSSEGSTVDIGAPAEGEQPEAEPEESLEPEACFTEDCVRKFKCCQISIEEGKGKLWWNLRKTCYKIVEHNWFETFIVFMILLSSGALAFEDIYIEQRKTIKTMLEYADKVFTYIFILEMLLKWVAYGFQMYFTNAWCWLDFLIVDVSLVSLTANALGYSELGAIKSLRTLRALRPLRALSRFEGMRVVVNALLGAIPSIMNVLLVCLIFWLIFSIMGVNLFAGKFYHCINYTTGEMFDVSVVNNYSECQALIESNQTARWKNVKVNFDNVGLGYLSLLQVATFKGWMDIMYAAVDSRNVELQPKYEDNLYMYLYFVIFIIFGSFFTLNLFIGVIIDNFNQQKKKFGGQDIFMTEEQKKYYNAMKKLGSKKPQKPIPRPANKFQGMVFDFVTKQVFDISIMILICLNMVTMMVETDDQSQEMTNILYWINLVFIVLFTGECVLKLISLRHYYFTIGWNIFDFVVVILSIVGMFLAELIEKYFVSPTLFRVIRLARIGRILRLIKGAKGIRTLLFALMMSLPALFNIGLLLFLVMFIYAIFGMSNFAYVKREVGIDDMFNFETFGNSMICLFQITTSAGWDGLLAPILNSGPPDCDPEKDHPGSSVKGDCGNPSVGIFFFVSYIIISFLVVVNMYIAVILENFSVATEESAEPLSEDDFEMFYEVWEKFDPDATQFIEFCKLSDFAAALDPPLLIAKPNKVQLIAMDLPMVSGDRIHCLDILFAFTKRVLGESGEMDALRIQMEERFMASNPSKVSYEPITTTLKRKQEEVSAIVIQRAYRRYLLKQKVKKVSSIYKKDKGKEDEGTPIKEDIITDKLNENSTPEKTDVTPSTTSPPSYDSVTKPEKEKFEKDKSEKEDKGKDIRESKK

Nc1c(Br)cc(Br)cc1CN[C@H]1CC[C@H](O)CC1 [AMB, Ambroxol]
inhibition at 100 µM [1, 5]: 33%
Ki [1, 6]: 18.6 µM
Ki [1, 7]: 12.8 µM
Kd [1, 8]: 201 µM
Kd [1, 9]: 201 µM
Ki [1, 10]: 17.6 µM
Ki [1, 11]: 12.2 µM
τon ([2]; 100 μM): 5.74 s
UD (use-dependence of the inhibition) ([2]; 100 μM, 5 Hz train): 1.24
τoff [2, 12]: 6.78 s
Rev (reversibility) ([2]; 100 μM): 0.81
inhibition at 100 µM [2, 13]: 51%
potency estimated from few doses [2, 14]: 95.9 µM
Ki [3]: 8.17 µM
Kd [3]: 110 µM

O=C(O)Cc1ccccc1Nc1c(Cl)cccc1Cl [DIC, Diclofenac]
inhibition at 100 µM [1, 5]: 3%
Ki [1, 6]: 98.4 µM
Ki [1, 7]: 102 µM
Kd [1, 8]: 3300 µM
Kd [1, 9]: 3120 µM
Ki [1, 10]: 87.8 µM
Ki [1, 11]: 81 µM
τon ([2]; 100 μM): 7.19 s
UD (use-dependence of the inhibition) ([2]; 100 μM, 5 Hz train): 1.01
τoff [2, 12]: 26.43 s
Rev (reversibility) ([2]; 100 μM): 0.95
potency estimated from few doses [2, 14]: 561 µM
plasma conc. ([4]; as printed in each cell): 2 [44] µg/ml
plasma conc. ([4]; as printed in the µg/ml cell): 6.287 µM

O=C(NCC1CCCCN1)c1cc(OCC(F)(F)F)ccc1OCC(F)(F)F (stereo not shown) [FLC, Flecainide]
inhibition at 300 µM ([1]; HEK293, 300 µM, read-out: Inh (inhibited fraction) at holding potential −150 mV): 82%
Ki ([1]; arithmetic mean, 300 µM, read-out: Ki-Kapp arith): 6.1 µM
Ki ([1]; arithmetic mean, 300 µM, read-out: Ki-ΔV1/2 arith): 9.72 µM
Kd ([1]; arithmetic mean, 300 µM, read-out: Kr arith): 65 µM
Kd ([1]; geometric mean, from Inh at −150 mV, 300 µM, read-out: Kr (resting state affinity)): 64.7 µM
Ki ([1]; geometric mean, from apparent affinity, 300 µM, read-out: Ki−Kapp (inactivated state affinity)): 5.7 µM
Ki ([1]; geometric mean, from shift of availability curve, 300 µM, read-out: Ki−ΔV1/2 (inactivated state affinity)): 7.9 µM
Kr ([1]; in words): low Kr
difference between Kr and IC50 [2]: no difference
τoff ([2]; 300 μM): 64.97 s
τon ([2]; 300 μM, 3 s assigned where too short to be resolved): 20.04 s
UD (use-dependence of the inhibition) ([2]; 300 μM, 5 Hz train): 1.34
Rev (reversibility) ([2]; 300 μM): 0.57
use-dependence (UD) ([2]; 5 Hz train): high
inhibition at 300 µM ([2]; HEK293, 300 μM, −90 mV holding potential, 5 Hz train, read-out: Inh (inhibited fraction)): 82%
potency estimated from few doses ([2]; HEK293, calculated from Inh at single concentration 300 μM, 5 Hz train): 67.6 µM
Ki [3]: 5.55 µM
Kd [3]: 355 µM

CN(C)CCCN1c2ccccc2CCc2ccccc21 [IMI, Imipramine]
plasma conc. ([4]; as printed in each cell): 0.2 [44] µg/ml
plasma conc. ([4]; as printed in the µg/ml cell): 0.631 µM
Ki [3]: 0.89 µM
Kd [3]: 26.5 µM

CCc1nn(CCCN2CCN(c3cccc(Cl)c3)CC2)c(=O)n1CCOc1ccccc1 [NFZ, Nefazodone]
ΔV1/2 (shift of availability curve) ([1]; 30 μM): −17.4 mV
inhibition at 30 µM [1, 15]: 9%
Ki [1, 16]: 1.1 µM
Ki [1, 17]: 1.05 µM
Kd [1, 18]: 567 µM
Ki [1, 19]: 0.92 µM
Ki [1, 20]: 0.87 µM
τon ([2]; 30 μM): 8.75 s
UD (use-dependence of the inhibition) ([2]; 30 μM, 5 Hz train): 1.22
τoff [2, 21]: 10.93 s
Rev (reversibility) ([2]; 30 μM): 0.51
inhibition at 30 µM ([2]; HEK293, 30 μM, −90 mV holding potential, 5 Hz train, read-out: Inh (inhibited fraction)): 39%
potency estimated from few doses [2, 22]: 46.4 µM
plasma conc. ([4]; as printed in each cell): 1.52 [48] µg/ml
plasma conc. ([4]; as printed in the µg/ml cell): 3.007 µM

CNCCC(Oc1ccccc1OC)c1ccccc1 (stereo not shown) [NIS, Nisoxetine]
ΔV1/2 (shift of availability curve) ([1]; 100 μM): −6.68 mV
inhibition at 100 µM ([1]; HEK293, read-out: Inh (inhibited fraction) at holding potential −150 mV): 34%
Ki ([1]; Ki-Kapp arith, arithmetic mean, 100 µM): 7.63 µM
Ki ([1]; Ki-ΔV1/2 arith, arithmetic mean, 100 µM): 19.5 µM
Ki ([1]; Ki−Kapp (inactivated state affinity), geometric mean, from apparent affinity, 100 µM): 7.1 µM
Ki ([1]; Ki−ΔV1/2 (inactivated state affinity), geometric mean, from shift of availability curve, 100 µM): 19.1 µM
Kd ([1]; Kr (resting state affinity), geometric mean, from Inh at −150 mV, 100 µM): 194 µM
Kd ([1]; Kr arith, arithmetic mean, 100 µM): 196 µM
τon ([2]; 100 μM): 20.71 s
UD (use-dependence of the inhibition) ([2]; 100 μM, 5 Hz train): 1.33
τoff [2, 12]: 23.41 s
Rev (reversibility) ([2]; 100 μM): 0.66
inhibition at 100 µM [2, 13]: 57%
potency estimated from few doses [2, 14]: 75.7 µM
plasma conc. ([4]; as printed in each cell): 0.05 [46] µg/ml
plasma conc. ([4]; as printed in the µg/ml cell): 0.159 µM

Cc1nc2sccn2c(=O)c1CCN1CCC(=C(c2ccc(F)cc2)c2ccc(F)cc2)CC1 [RIT, Ritanserin]
ΔV1/2 (shift of availability curve) ([1]; 30 μM): −7.28 mV
inhibition at 30 µM [1, 15]: 13%
Ki [1, 16]: 6.52 µM
Ki [1, 17]: 7.69 µM
Kd ([1]; arithmetic mean, 30 µM, read-out: Kr arith): 225 µM
Kd [1, 18]: 206 µM
Ki [1, 19]: 6.1 µM and 6.13 µM
Ki [1, 20]: 7.1 µM
τon ([2]; 30 μM): 14.38 s
UD (use-dependence of the inhibition) ([2]; 30 μM, 5 Hz train): 1.09
τoff [2, 21]: 22.28 s
Rev (reversibility) ([2]; 30 μM): 0.37
potency estimated from few doses [2, 22]: 23.6 µM
plasma conc. ([4]; as printed in each cell): 0.14 [54] µg/ml
plasma conc. ([4]; as printed in the µg/ml cell): 0.299 µM
